Results published in patent publication US9174973B2, “Crystalline forms of azilsartan and preparation and uses thereof” (SUNSHINE LAKE PHARMA CO., LTD., priority 2011, dated 2015).

Columns and labels:
Type in all cases: physicochemical
[1] = solubility test of crystalline forms in 0.1M HCl (Chinese Pharmacopoeia 2010); settings: 300 mg in 6 ml 0.1M HCl, 25° C.±2° C.
Protocol: The solubility of crystalline forms A, B, C and D was measured in accordance with the solubility test described in “Chinese Pharmacopoeia 2010”, Topic and Requirement 15. A crystalline form of azilsartan was grinded into powder. The powder (300 mg) was added to 6 ml of 0.1M HCl as the solvent at 25° C.±2° C. […] The total test time was 30 minutes. The solid was deemed as dissolved when no solid was detected in the mixture by human eyes. The solubility data of crystalline forms A, B, C and D of azilsartan are as shown below.

[2] = Thermal Stability of crystalline form A
Protocol: (§1) A layer of crystalline form A having a thickness of less than 5 mm was place in a flat weighing bottle. […] Samples were taken out at 6 days, 11 days and 16 days and examined for purity by HPLC, appearance and crystalline form. The conditions for the HPLC measurements are as shown below. • Instrument: Agilent 1200HPLC • Column: Agilent Eclipse XDB-C18 4.6*150 mm, 5 μm • Detection wavelength: 254 nm • Mobile phase: A phase 10 mM ammonium acetate (pH=3.5) and B phase acetonitrile [table]

[3] = Light Stability of crystalline form A; settings: light 4500+/−500 Lux, 6 days
Protocol: as §1

[4] = 0 day (initial sample, before stress)

Compound: CCOc1nc2cccc(C(=O)O)c2n1Cc1ccc(-c2ccccc2-c2noc(=O)[nH]2)cc1 [Form A]
- solubility [1]: very soluble
- Appearance [2, 4]: White or off-
- Crystalline form [2, 4]: Form A
- RT* (min.) 2.39 (HPLC peak) [2, 4]: — (“—” refers to the peak area is less than 3000 or there is no peak)
- RT* (min.) 2.89 (HPLC peak) [2, 4]: 0.01%
- RT* (min.) 3.9 (HPLC peak) [2, 4]: 0.32%
- RT* (min.) 5.79 (HPLC peak) [2, 4]: — (“—” refers to the peak area is less than 3000 or there is no peak)
- RT* (min.) 13.2 (azilsartan peak, purity by HPLC) [2, 4]: 99.51%
- RT* (min.) 20.55 (HPLC peak) [2, 4]: — (“—” refers to the peak area is less than 3000 or there is no peak)
- RT* (min.) 22.8 (HPLC peak) [2, 4]: 0.04%
- RT* (min.) 23.6 (HPLC peak) [2, 4]: 0.01%
- RT* (min.) 26.96 (HPLC peak) [2, 4]: — (“—” refers to the peak area is less than 3000 or there is no peak)
- RT* (min.) 27.5 (HPLC peak) [2, 4]: 0.06%
- RT* (min.) 28.81 (HPLC peak) [2, 4]: — (“—” refers to the peak area is less than 3000 or there is no peak)
- RT* (min.) 30.66 (HPLC peak) [2, 4]: 0.02%
- Appearance ([2]; 60° C., 6 days): White or off-
- Crystalline form ([2]; 60° C., 6 days): Form A
- RT* (min.) 2.39 (HPLC peak) ([2]; 60° C., 6 days): — (“—” refers to the peak area is less than 3000 or there is no peak)
- RT* (min.) 2.89 (HPLC peak) ([2]; 60° C., 6 days): 0.02%
- RT* (min.) 3.9 (HPLC peak) ([2]; 60° C., 6 days): 0.33%
- RT* (min.) 5.79 (HPLC peak) ([2]; 60° C., 6 days): 0.01%
- RT* (min.) 13.2 (azilsartan peak, purity by HPLC) ([2]; 60° C., 6 days): 99.47%
- RT* (min.) 20.55 (HPLC peak) ([2]; 60° C., 6 days): 0.01%
- RT* (min.) 22.8 (HPLC peak) ([2]; 60° C., 6 days): 0.04%
- RT* (min.) 23.6 (HPLC peak) ([2]; 60° C., 6 days): 0.02%
- RT* (min.) 26.96 (HPLC peak) ([2]; 60° C., 6 days): 0.01%
- RT* (min.) 27.5 (HPLC peak) ([2]; 60° C., 6 days): 0.06%
- RT* (min.) 28.81 (HPLC peak) ([2]; 60° C., 6 days): 0.01%
- RT* (min.) 30.66 (HPLC peak) ([2]; 60° C., 6 days): 0.03%
- Appearance ([2]; 60° C., 11 days): White or off-
- Crystalline form ([2]; 60° C., 11 days): Form A
- RT* (min.) 2.39 (HPLC peak) ([2]; 60° C., 11 days): — (“—” refers to the peak area is less than 3000 or there is no peak)
- RT* (min.) 2.89 (HPLC peak) ([2]; 60° C., 11 days): 0.01%
- RT* (min.) 3.9 (HPLC peak) ([2]; 60° C., 11 days): 0.35%
- RT* (min.) 5.79 (HPLC peak) ([2]; 60° C., 11 days): — (“—” refers to the peak area is less than 3000 or there is no peak)
- RT* (min.) 13.2 (azilsartan peak, purity by HPLC) ([2]; 60° C., 11 days): 99.48%
- RT* (min.) 20.55 (HPLC peak) ([2]; 60° C., 11 days): 0.02%
- RT* (min.) 22.8 (HPLC peak) ([2]; 60° C., 11 days): 0.04%
- RT* (min.) 23.6 (HPLC peak) ([2]; 60° C., 11 days): 0.02%
- RT* (min.) 26.96 (HPLC peak) ([2]; 60° C., 11 days): — (“—” refers to the peak area is less than 3000 or there is no peak)
- RT* (min.) 27.5 (HPLC peak) ([2]; 60° C., 11 days): 0.07%
- RT* (min.) 28.81 (HPLC peak) ([2]; 60° C., 11 days): — (“—” refers to the peak area is less than 3000 or there is no peak)
- RT* (min.) 30.66 (HPLC peak) ([2]; 60° C., 11 days): 0.02%
- Appearance ([2]; 60° C., 16 days): White or off-
- Crystalline form ([2]; 60° C., 16 days): Form A
- RT* (min.) 2.39 (HPLC peak) ([2]; 60° C., 16 days): — (“—” refers to the peak area is less than 3000 or there is no peak)
- RT* (min.) 2.89 (HPLC peak) ([2]; 60° C., 16 days): 0.01%
- RT* (min.) 3.9 (HPLC peak) ([2]; 60° C., 16 days): 0.35%
- RT* (min.) 5.79 (HPLC peak) ([2]; 60° C., 16 days): — (“—” refers to the peak area is less than 3000 or there is no peak)
- RT* (min.) 13.2 (azilsartan peak, purity by HPLC) ([2]; 60° C., 16 days): 99.47%
- RT* (min.) 20.55 (HPLC peak) ([2]; 60° C., 16 days): 0.02%
- RT* (min.) 22.8 (HPLC peak) ([2]; 60° C., 16 days): 0.04%
- RT* (min.) 23.6 (HPLC peak) ([2]; 60° C., 16 days): 0.02%
- RT* (min.) 26.96 (HPLC peak) ([2]; 60° C., 16 days): — (“—” refers to the peak area is less than 3000 or there is no peak)
- RT* (min.) 27.5 (HPLC peak) ([2]; 60° C., 16 days): 0.07%
- RT* (min.) 28.81 (HPLC peak) ([2]; 60° C., 16 days): — (“—” refers to the peak area is less than 3000 or there is no peak)
- RT* (min.) 30.66 (HPLC peak) ([2]; 60° C., 16 days): 0.02%
- Appearance [3]: Light yellow
- Crystalline form [3]: Form A
- RT* (min.) 2.39 (HPLC peak) [3]: 0.01%
- RT* (min.) 2.89 (HPLC peak) [3]: 0.09%
- RT* (min.) 3.9 (HPLC peak) [3]: 0.32%
- RT* (min.) 5.79 (HPLC peak) [3]: — (“—” refers to the peak area is less than 3000 or there is no peak)
- RT* (min.) 13.2 (azilsartan peak, purity by HPLC) [3]: 99.45%
- RT* (min.) 20.55 (HPLC peak) [3]: — (“—” refers to the peak area is less than 3000 or there is no peak)
- RT* (min.) 22.8 (HPLC peak) [3]: 0.04%
- RT* (min.) 23.6 (HPLC peak) [3]: 0.01%
- RT* (min.) 26.96 (HPLC peak) [3]: — (“—” refers to the peak area is less than 3000 or there is no peak)
- RT* (min.) 27.5 (HPLC peak) [3]: 0.06%
- RT* (min.) 28.81 (HPLC peak) [3]: — (“—” refers to the peak area is less than 3000 or there is no peak)
